In patent US20240238301A1, “COMPOSITIONS AND METHODS FOR REDUCED TOXICITY IN TRANSPLANTATION USING JANUS KINASE (JAK) INHIBITORS” (THE REGENTS OF THE UNIVERSITY OF COLORADO, A BODY CORPORATE, priority 2021, published 2024):

How the values were obtained:
[1] = manufacturer reported; cited from earlier work
[2] = test system: Balb/cJ recipients and C57BL/6 donors; assay: MHC-mismatched allogeneic BMT, donor cell engraftment by FACS of peripheral blood (Balb/cJ recipients, C57BL/6 donors); type: in vivo, mice; conditions: 4 Gy RIC TBI, 90 mg/kg oral gavage twice daily Day -5 through Day +2, 4 weeks post-BMT, n=7
Description: (§1) In one exemplary method, mouse models of human allogeneic bone marrow transplant events were prepared. In brief, major histocompatibility complex (MHC)-mismatched bone marrow transplants (BMTs, HCT)—which model human allogeneic BMTs—were performed in mice. Mice used in this exemplary method were the C57BL/6 mouse strain (which express the MHC marker H2K^b) and the Balb/cJ strain (which express the MHC marker H2K^d). Both mouse strains were maintained by homozygous breeding according to established vivarium practices. Mice approximately 6-10 weeks of age were used for both recipients and donors. Donors and recipients were matched in gender (male recipient mice receive cells from male donors while female recipients receive cells from female donors).
(§2) In another exemplary method, BMT was performed by isolating bone marrow cells from the bones of euthanized donor mice using a method similar to previous methods (Amend et al., J Vis Exp. 2016 Apr. 14; (110):53936). […] Viable cells (which excluded Trypan Blue) were counted using a hematocytometer. […] Stained cells were resuspended in PBS and evaluated via Fluorescent-Activated Cell Sorting (FACS) on a Cytek Aurora cytometer. FACS data was analyzed using FloJo software. […] Cells which were negative for Ter119 (RBCs) and positive for CD45 (hematopoietic cells) were further analyzed. […]

[3] = test system: C57BL/6 recipients and Balb/cJ donors; assay: MHC-mismatched allogeneic BMT, donor cell engraftment by FACS of peripheral blood (C57BL/6 recipients, Balb/cJ donors); type: in vivo, mice; conditions: 6.5 Gy RIC TBI
Description: as §1, §2

[4] = test system: recipient and donor NK and T cells (mouse spleen cells); assay: Effect on recipient versus donor NK and T cells in spleen after BMT (FACS); type: in vivo, mice; conditions: spleen cells after BMT (data not shown)
Description: In another exemplary method, BMTs were performed and assessed to determine the effects of JAK inhibitors on recipient compared to donor NK and T cells as outlined in FIG. 6. In this exemplary method, BMTs were performed in mice as described in Example 1 wherein C57BL/6 mice were the transplant donors while Balb/cJ mice served as stem cell recipients. Recipient mice were treated with Ruxolitinib and given RIC TBI followed by BMT as previously described in the examples herein. On Day +1 and Day +3 post-BMT, a portion of the recipient mice were euthanized, and their spleens were harvested. The spleen cells were prepared into a single cell suspension, subjected to RBC lysis, stained (using previously referenced markers in addition to T-cell subset markers, CD4 and CD8) and analyzed by FACS as described in the examples herein.

Structure (SMILES) | solubility in DMSO [1] [mg/mL] | donor cell engraftment (mice engrafted) [2] [%] | donor cell engraftment (mice engrafted) ([3]; 180 mg/kg Day -5 through Day +2, 4 weeks post-BMT, n=6) [%] | donor cell engraftment (mice engrafted) ([3]; 270 mg/kg Day -5 through Day +2, 4 weeks post-BMT, n=3) [%] | effect on donor T cells [4]
N#CC[C@H](C1CCCC1)n1cc(-c2ncnc3[nH]ccc23)cn1 [Ruxolitinib phosphate] | 200 |  |  |  | 
N#CC[C@H](C1CCCC1)n1cc(-c2ncnc3[nH]ccc23)cn1 [ruxolitinib] |  | 100 | 100 | 100 | no significant effect
